Test: method code SF-TN, from DOI: 10.1021/jm00251a007, PMID: 4151492
`CC(C)NCC(O)COc1cccc(OCC(O)CNC(C)C)c1` (stereo unspecified) showed a logP of 0.73.
In the case of `CC(C)NCC(O)COc1ccccc1-c1ccccc1OCC(O)CNC(C)C` (stereo unspecified), the logP is reported as 0.97.
In the case of `CC(C)NCC(O)COc1ccc2c(OCC(O)CNC(C)C)cccc2c1` (stereo unspecified), the logP is reported as 0.87.
`CC(C)NCC(O)COc1ccc(OCC(O)CNC(C)C)cc1` (stereo unspecified) showed a logP of 0.67.
Compound `CC(C)NCC(O)COc1cccc2cccc(OCC(O)CNC(C)C)c12` (stereo unspecified) has a logP of 1.37.
Work on `CC(C)NCC(O)COc1cc(OCC(O)CNC(C)C)c2ccccc2c1` (stereo unspecified) yielded a logP of 0.99.
Compound `CC(C)NCC(O)COc1cccc2c(OCC(O)CNC(C)C)cccc12` (stereo unspecified) has a logP of 0.98.
For `CC(C)NCC(O)COc1ccccc1OCC(O)CNC(C)C` (stereo unspecified), the logP was 0.63.
In the case of `CC(C)NCC(O)COc1ccc(OCC(O)CNC(C)C)c2ccccc12` (stereo unspecified), the logP is reported as 0.93.
`CC(C)NCC(O)COc1ccccc1` (stereo unspecified) showed a logP of 1.76.
`CC(C)NCC(O)COc1ccc2ccccc2c1OCC(O)CNC(C)C` (stereo unspecified) showed a logP of 1.07.
